# Test results: ChEMBL document CHEMBL1201862, “PubChem BioAssay data set” (2004)
#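 Each compound was tested at five concentrations against cells in 96-well plates for 48 hours. GI50 marks 50% less growth.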 Calls of active or inactive are those of the source. Rule as the data show it: active = GI50 up to about 1.1 µM and inactive = higher.
# Assays:
# Test in all cases: NCI-60 cell line screen, 48 h
# MDA-MB-435 = test system: MDA-MB-435
# SK-MEL-5 = test system: SK-MEL-5
# NCI-H460 = test system: NCI-H460
# Hs-578T = test system: Hs-578T
# IGROV-1 = test system: IGROV-1
# HCT-116 = test system: HCT-116
# SK-OV-3 = test system: SK-OV-3
# A498 = test system: A498
# OVCAR-4 = test system: OVCAR-4
# M14 = test system: M14
# UACC-257 = test system: UACC-257
# HL-60 = test system: HL-60
# HCT-15 = test system: HCT-15
# EKVX = test system: EKVX
# LOX IMVI = test system: LOX IMVI
# RPMI-8226 = test system: RPMI-8226
# CCRF-CEM = test system: CCRF-CEM
# 786-0 = test system: 786-0
# KM12 = test system: KM12
# K562 = test system: K562
SMILES,GI50 (MDA-MB-435),GI50 (SK-MEL-5),GI50 (NCI-H460),GI50 (Hs-578T),GI50 (IGROV-1),GI50 (HCT-116),GI50 (SK-OV-3),GI50 (A498),GI50 (OVCAR-4),GI50 (M14),GI50 (UACC-257),GI50 (HL-60),GI50 (HCT-15) [µM],GI50 (EKVX),GI50 (LOX IMVI),GI50 (RPMI-8226),GI50 (CCRF-CEM),GI50 (786-0),GI50 (KM12),GI50 (K562)
Nc1nc(N)c2cc(-c3cc4ccccc4[nH]3)ccc2n1,18.5 µM (inactive),15.2 µM (inactive),19.2 µM (inactive),32.1 µM (inactive),15.8 µM (inactive),31.8 µM (inactive),45.3 µM (inactive),18.1 µM (inactive),21.9 µM (inactive),17.6 µM (inactive),16.2 µM (inactive),19.7 µM (inactive),22.1,29 µM (inactive),18.5 µM (inactive),14.3 µM (inactive),35.2 µM (inactive),22.5 µM (inactive),17.8 µM (inactive),–
CCOC(=O)c1c2ccccc2n2c(=O)n(-c3ccc(OC)cc3)nnc12,> 37.1 µM (inactive),58.5 µM (inactive),> 95.1 µM (inactive),19.9 µM (inactive),17.5 µM (inactive),54.8 µM (inactive),26.7 µM (inactive),44.3 µM (inactive),22.5 µM (inactive),51.1 µM (inactive),60.5 µM (inactive),21.1 µM (inactive),> 58.6,32.1 µM (inactive),17.3 µM (inactive),25.1 µM (inactive),–,17 µM (inactive),88.1 µM (inactive),25.9 µM (inactive)
COC(=O)[C@@H]1CCc2nc3ccccc3c(=O)n21,> 100 µM (inactive),> 100 µM (inactive),> 100 µM (inactive),> 100 µM (inactive),> 100 µM (inactive),> 100 µM (inactive),> 100 µM (inactive),> 100 µM (inactive),> 100 µM (inactive),> 100 µM (inactive),> 100 µM (inactive),> 100 µM (inactive),> 100,> 100 µM (inactive),> 100 µM (inactive),> 100 µM (inactive),> 100 µM (inactive),> 100 µM (inactive),> 100 µM (inactive),> 100 µM (inactive)
C[C@]12CC[C@H](O)CC1=CC[C@@H]1[C@@H]2CC[C@]2(C)C(=O)[C@@H](N3CCOCC3)C[C@@H]12,> 100 µM (inactive),33.1 µM (inactive),> 100 µM (inactive),90.4 µM (inactive),> 100 µM (inactive),> 100 µM (inactive),> 100 µM (inactive),> 100 µM (inactive),> 100 µM (inactive),78.5 µM (inactive),> 100 µM (inactive),47.1 µM (inactive),> 100,40.6 µM (inactive),> 100 µM (inactive),48.4 µM (inactive),99.8 µM (inactive),> 100 µM (inactive),> 100 µM (inactive),89.3 µM (inactive)
CCOc1cc(NC(C)=O)ccc1C(=O)NNS(=O)(=O)c1ccc(Cl)cc1Cl,12.7 µM (inactive),14.6 µM (inactive),> 50 µM (inactive),> 50 µM (inactive),> 50 µM (inactive),> 50 µM (inactive),> 50 µM (inactive),> 50 µM (inactive),> 50 µM (inactive),> 50 µM (inactive),> 50 µM (inactive),> 50 µM (inactive),> 50,> 50 µM (inactive),45.5 µM (inactive),7.48 µM (inactive),> 50 µM (inactive),> 50 µM (inactive),31.5 µM (inactive),0.232 µM (active)
CCOc1cc2c(cc1O)C=C[C@@H]1[C@@H]2CC[C@]2(C)[C@@H](O)CC[C@@H]12,0.334 µM (active),1.97 µM (inactive),2.05 µM (inactive),4.19 µM (inactive),2.88 µM (inactive),1.11 µM (active),3.34 µM (inactive),7.11 µM (inactive),24.9 µM (inactive),2.8 µM (inactive),12.5 µM (inactive),0.579 µM (active),0.562,4.79 µM (inactive),3.87 µM (inactive),2.52 µM (inactive),3.15 µM (inactive),4.35 µM (inactive),5.3 µM (inactive),1.8 µM (inactive)
c1ccc(NNN2NC(c3ccccc3)C2c2ccccc2)cc1 (configuration not stated),> 100 µM (inactive),> 100 µM (inactive),72.4 µM (inactive),> 100 µM (inactive),–,79.4 µM (inactive),> 100 µM (inactive),> 100 µM (inactive),86.1 µM (inactive),> 100 µM (inactive),87.9 µM (inactive),49.5 µM (inactive),> 100,> 100 µM (inactive),> 100 µM (inactive),> 100 µM (inactive),59.6 µM (inactive),> 100 µM (inactive),> 100 µM (inactive),91.8 µM (inactive)
